From publication PMC2678238 (Journal of biological inorganic chemistry : JBIC : a …, 2009)
Read-outs that look alike come from different tables or passages of the source.

Tests used:
Co(II)-loaded PfMetAP-II [1] = molecular target: T1, Co(II)-loaded PfMetAP-II (Pyrococcus furiosus, UniProt P56218); test: Enzymatic assay of MetAP; format: biochemical
Co(II)-loaded HsMetAP-II = conditions: in words; cited from earlier work
Co(II)-loaded EcMetAP-I [2] = molecular target: T2, Co(II)-loaded EcMetAP-I (Escherichia coli, UniProt P0AE18); test: Isothermal titration calorimetry; format: binding; conditions: for n (stoichiometry): ITC fit; for TΔS / ΔG: from ITC via Gibbs relationship
Mn(II)-loaded EcMetAP-I [3] = molecular target: T3, Mn(II)-loaded EcMetAP-I (Escherichia coli, UniProt P0AE18); test: Isothermal titration calorimetry; format: binding; conditions: for fold stronger binding (Kd) to Co(II)-loaded than Mn(II)-loaded EcMetAP-I: ITC Kd Mn(II)-loaded vs Co(II)-loaded EcMetAP-I; for n (stoichiometry): ITC fit
Mn(II)-loaded PfMetAP-II [4] = molecular target: T4, Mn(II)-loaded PfMetAP-II (Pyrococcus furiosus, UniProt P56218); test: Isothermal titration calorimetry; format: binding; conditions: for fold stronger binding (Kd) to Co(II)-loaded than Mn(II)-loaded PfMetAP-II: ITC Kd Mn(II)-loaded vs Co(II)-loaded PfMetAP-II; for n (stoichiometry): ITC fit
Co(II)-loaded PfMetAP-II [5] = molecular target: T1, Co(II)-loaded PfMetAP-II; test: Isothermal titration calorimetry; format: binding; conditions: for n (stoichiometry): ITC fit; for TΔS / ΔG: from ITC via Gibbs relationship
Co(II)-loaded EcMetAP-I [6] = molecular target: T2, Co(II)-loaded EcMetAP-I; test: Enzymatic assay of MetAP; format: biochemical
Mn(II)-loaded HsMetAP-II = conditions: in words; cited from earlier work
Mn(II)-loaded PfMetAP-II [7] = molecular target: T4, Mn(II)-loaded PfMetAP-II; test: Enzymatic assay of MetAP; format: biochemical
Mn(II)-loaded EcMetAP-I [8] = molecular target: T3, Mn(II)-loaded EcMetAP-I; test: Enzymatic assay of MetAP; format: biochemical
[9] = [MnMn(EcMetAP-I)], from ITC via Gibbs relationship
[10] = [MnMn(PfMetAP-II)], from ITC via Gibbs relationship

T4 sequence (P56218 whole entry): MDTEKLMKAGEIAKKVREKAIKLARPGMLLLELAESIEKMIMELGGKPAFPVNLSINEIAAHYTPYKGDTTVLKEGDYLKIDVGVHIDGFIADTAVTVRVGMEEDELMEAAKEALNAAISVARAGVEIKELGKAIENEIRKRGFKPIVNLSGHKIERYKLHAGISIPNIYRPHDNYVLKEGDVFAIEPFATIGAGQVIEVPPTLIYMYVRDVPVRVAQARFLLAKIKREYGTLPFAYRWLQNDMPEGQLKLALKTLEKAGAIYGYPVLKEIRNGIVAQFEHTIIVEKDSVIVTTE
T1 sequence (P56218 whole entry): as above
T2 sequence (P0AE18 whole entry): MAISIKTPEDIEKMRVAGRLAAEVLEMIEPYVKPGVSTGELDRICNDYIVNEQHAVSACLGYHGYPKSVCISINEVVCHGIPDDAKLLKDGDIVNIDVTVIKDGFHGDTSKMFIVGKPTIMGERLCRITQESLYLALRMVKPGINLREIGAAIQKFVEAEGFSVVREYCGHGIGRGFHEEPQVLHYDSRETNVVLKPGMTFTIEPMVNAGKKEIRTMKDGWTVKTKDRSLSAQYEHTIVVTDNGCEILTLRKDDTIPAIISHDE
T3 sequence (P0AE18 whole entry): as above

Compound	inhibition of Co(II)-loaded HsMetAP-II (Co(II)-loaded HsMetAP-II)	n (stoichiometry) (Co(II)-loaded EcMetAP-I [2]; [CoCo(EcMetAP-I)])	TΔS (Co(II)-loaded EcMetAP-I [2]; [CoCo(EcMetAP-I)])	ΔG (Co(II)-loaded EcMetAP-I [2]; [CoCo(EcMetAP-I)])	fold stronger binding (Kd) to Co(II)-loaded than Mn(II)-loaded EcMetAP-I (Mn(II)-loaded EcMetAP-I [3])	n (stoichiometry) (Mn(II)-loaded EcMetAP-I [3]; [MnMn(EcMetAP-I)])	ΔG (Mn(II)-loaded EcMetAP-I [3]; [9])	fold stronger binding (Kd) to Co(II)-loaded than Mn(II)-loaded PfMetAP-II (Mn(II)-loaded PfMetAP-II [4])	n (stoichiometry) (Mn(II)-loaded PfMetAP-II [4]; [MnMn(PfMetAP-II)])	ΔG (Mn(II)-loaded PfMetAP-II [4]; [10])	n (stoichiometry) (Co(II)-loaded PfMetAP-II [5]; [CoCo(PfMetAP-II)])	TΔS (Co(II)-loaded PfMetAP-II [5]; [CoCo(PfMetAP-II)])	ΔG (Co(II)-loaded PfMetAP-II [5]; [CoCo(PfMetAP-II)])	also measured
CCSCC[C@@H](N)C(O)C(=O)N[C@@H](C)c1cccc2ccccc12 (mixture of isomers) [A-311263, ((2RS,3R)-3-amino-2-hydroxy-5-ethylthio)pentanoyl-((S)-(−)-(1-naphthyl)ethyl)amide]	equally well	1	7.89 kcal/mol	-7.65 kcal/mol	approximately 21 fold	1	-5.86 kcal/mol	approximately 58 fold	1	-6.24 kcal/mol	1	5.02 kcal/mol	-8.65 kcal/mol	Ki (Co(II)-loaded PfMetAP-II [1]; [CoCo(PfMetAP-II)], competitive inhibition fit, substrate MGMM): 2 µM; Kd (Co(II)-loaded EcMetAP-I [2]; [CoCo(EcMetAP-I)], ITC, 25.0 °C, HEPES pH 7.5): 2.4 ± 0.1 µM; Kd (Mn(II)-loaded EcMetAP-I [3]; [MnMn(EcMetAP-I)], ITC, 25.0 °C, HEPES pH 7.5): 50 ± 5 µM; TΔS (Mn(II)-loaded EcMetAP-I [3]; [9]): 1.4 kcal/mol; Kd (Mn(II)-loaded PfMetAP-II [4]; [MnMn(PfMetAP-II)], ITC, 25.0 °C, HEPES pH 7.5): 26 ± 5 µM; Kd (Co(II)-loaded PfMetAP-II [5]; [CoCo(PfMetAP-II)], ITC, 25.0 °C, HEPES pH 7.5): 0.45 ± 0.11 µM; Ki (Co(II)-loaded EcMetAP-I [6]; [CoCo(EcMetAP-I)], competitive inhibition fit, substrate MGMM): 3 µM; inhibition of Mn(II)-loaded HsMetAP-II (Mn(II)-loaded HsMetAP-II): equally well
c1ccc2cc(CSc3nnc[nH]3)ccc2c1 [A-310840, 3-((2-naphthylmethyl)sulfanyl)-4H-1,2,4-triazole]	strongly inhibits	1	4.78 kcal/mol	-6.81 kcal/mol	approximately 71 fold	1	-4.28 kcal/mol	approximately 333 fold	1	-4.33 kcal/mol	1	6.45 kcal/mol	-7.77 kcal/mol	IC50 (Mn(II)-loaded PfMetAP-II [7]): 1000 µM; Ki (Mn(II)-loaded PfMetAP-II [7]): 440 µM; fold less potent (IC50) for Mn(II)-loaded than Co(II)-loaded PfMetAP-II (Mn(II)-loaded PfMetAP-II [7]; IC50 Mn(II)-loaded vs Co(II)-loaded PfMetAP-II): approximately 67 fold; IC50 (Co(II)-loaded PfMetAP-II [1]): 15 µM; Ki (Co(II)-loaded PfMetAP-II [1]): 3 µM; Kd (Co(II)-loaded EcMetAP-I [2]): 10 ± 0.1 µM; Kd (Mn(II)-loaded EcMetAP-I [3]): 714 ± 10 µM; Kd (Mn(II)-loaded PfMetAP-II [4]): 666 ± 10 µM; TΔS (Mn(II)-loaded PfMetAP-II [4]; [10]): 4.06 kcal/mol; Kd (Co(II)-loaded PfMetAP-II [5]): 2 ± 0.1 µM; IC50 (Co(II)-loaded EcMetAP-I [6]): 44 µM; Ki (Co(II)-loaded EcMetAP-I [6]): 8 µM; IC50 (Mn(II)-loaded EcMetAP-I [8]): 1000 µM; Ki (Mn(II)-loaded EcMetAP-I [8]): 750 µM; fold less potent (IC50) for Mn(II)-loaded than Co(II)-loaded EcMetAP-I (Mn(II)-loaded EcMetAP-I [8]; IC50 Mn(II)-loaded vs Co(II)-loaded EcMetAP-I): approximately 23 fold
